In patent US20100022559A1, “BISOXIMES AS FUNGICIDES” (BAYER CROPSCIENCE AG, priority 2006, published 2010):

Assay: logP determination by HPLC on a reversed-phase column (C 18), EEC Directive 79/831 Annex V.A8
Assay type: physicochemical
Conditions: HCO2H; HPLC reversed-phase column (C 18), 43° C.; read-out: logP (HCO2H)
Procedure: The stated logP values were determined in accordance with EEC Directive 79/831 Annex V.A8 by HPLC (high performance liquid chromatography) on a reversed-phase column (C 18). Temperature: 43° C.

Row | Compound | chromatographic logP
1 | C/C(=N\OC[Si](C)(C)CO/N=C(\C)c1cccc(C)n1)c1cccc(C)n1 [(1E,1E′)-1-(6-methylpyridin-2-yl)ethanone O,O′-[(dimethylsilanediyl)bis(methylene)]oxime] | 4.5

Same assay, conditions: method marked [a] in Table 1

Row | logP | Compound
2 | 7.36^[a] | COc1ccc(-c2cccc(C(C)=NOCC(C)(C)CON=C(C)c3cccc(-c4ccc(OC)cc4)n3)n2)cc1 [compound 579]
3 | 6.08^[a] | CC(=NOCC(C)CON=C(C)c1cccc(Cl)n1)c1cccc(Cl)n1 (centres unmarked) [compound 568]

Same assay, conditions: method marked [b] in Table 1

Row | logP | Compound
4 | 5.08^[b] | CCC(=NOCC1(CON=C(CC)c2cccc(C)n2)CC(c2ccccc2)=NO1)c1cccc(C)n1 (centres unmarked) [compound 611]
5 | 2.30^[b] | CC(=NOCc1cccc(CON=C(C)c2ccc(C)c(C)n2)n1)c1ccc(C)c(C)n1 [compound 741]
6 | 3.33^[b] | CCCC1=NOC(CON=C(C)c2cccc(C)n2)(CON=C(C)c2cccc(C)n2)C1 (centres unmarked) [compound 598]
7 | 3.99^[b] (isomer A) | CC(=NOCCCCCCON=C(C)c1sc(C)nc1C)c1cccc(C)n1 (single isomer, unassigned) [compound 542]
8 | 3.85^[b] (isomer A) | CCCC(=NOCC(C)CON=C(C)c1cccc(C)n1)c1ncccc1C (single isomer, unassigned) [compound 548]
9 | 3.89^[b] | CCC(CON=C(C)c1ccc(C)c(C)n1)CON=C(C)c1ccc(C)c(C)n1 (centres unmarked) [Compound 678]
10 | 2.18^[b] | Cc1cccc(C=NOCC=CCON=Cc2cccc(C)n2)n1 [compound 737]
11 | 1.56^[b] | COC(CON=C(C)c1cc(C)cc(C)n1)CON=C(C)c1cc(C)cc(C)n1 (centres unmarked) [Compound 552]
12 | 3.68^[b] | Cc1cc(C)cc(/C(N)=N/OCc2ccccc2CO/N=C(\N)c2cc(C)cc(C)c2)c1 [compound 710]
13 | 3.89^[b] | CC(=NOCC1(CON=C(C)c2cccc(C)n2)CC(CC(C)C)=NO1)c1cccc(C)n1 (centres unmarked) [compound 599]
14 | 4.26^[b] | CC(=NOCc1ccccc1CON=C(C)c1cccc(C)n1)c1cccc(C)n1 [compound 703]
15 | 3.87^[b] (isomer A) | C=C(CON=C(C)c1cccc(C)n1)CON=C(c1cccc(C)n1)C(C)C (single isomer, unassigned) [Compound 672]

Row | Compound | logP
16 | CC(=NOC(=O)N(C)C(=O)ON=C(C)c1cccc(C)n1)c1cccc(C)n1 [compound 744] | 2.57^[b]

Same assay, conditions: method marked [c] in Table 1

Row | logP | Compound
17 | 5.08^[c] | CC(=NOCc1cccc(CON=C(C)c2ccc(C)c(C)n2)n1)c1ccc(C)c(C)n1 [compound 741]
18 | 6.79^[c] | CCC(CON=C(C)c1ccc(C)c(C)n1)CON=C(C)c1ccc(C)c(C)n1 (centres unmarked) [Compound 678]
19 | 4.91^[c] | COC(CON=C(C)c1cc(C)cc(C)n1)CON=C(C)c1cc(C)cc(C)n1 (centres unmarked) [Compound 552]

Same assay, conditions: method marker [a] (footnote not shown); isomer A / isomer B / isomer mixture as noted in the cell

Row | logP | Compound
20 | 6.78^[a] | CCCc1cccc(C(C)=NOCCCON=C(C)c2cccc(CCC)n2)n1 [Compound 174]
21 | 2.40^[a] | CC(=NOC(=O)CCC(=O)ON=C(C)c1cccc(C)n1)c1cccc(C)n1 [compound 159]
22 | 1.54^a] | CC(=NOCCCON=C(C)c1cncc(C)c1)c1cncc(C)c1 [compound 163]
23 | 2.85^[a] | Cc1cccc(C(=NOCCCON=C(c2cccc(C)n2)C2CC2)C2CC2)n1 (mixture of isomers) [Compound 167]
24 | 3.28^[a] (isomer A) | Cc1cccc(C(=NOCC(C)CON=C(c2cccc(C)n2)C2CC2)C2CC2)n1 (single isomer, unassigned) [compound 162]
25 | 5.16^[a] | CC(=NOCC(C)CON=C(C)c1csc(Cl)n1)c1csc(Cl)n1 (mixture of isomers) [compound 231]
26 | 2.90^[a] | CC(=NOCCCON=C(C)c1ccc(C)cn1)c1ccc(C)cn1 [Compound 81]
27 | 5.43^[a] | CCc1cccc(C(C)=NOCCCON=C(C)c2cccc(CC)n2)n1 [Compound 180]

Same assay, conditions: method marker [b]; isomer A / isomer B / isomer mixture as noted in the cell

Row | logP | Compound
28 | 2.67^[b] | Cc1cc(C)nc(C(N)=NOCCCCON=C(N)c2cc(C)cc(C)n2)c1 [compound 123]
29 | 1.83^[b] | C=C(CO/N=C(\N)c1nc(COC)c(C)c(COC)n1)CO/N=C(\N)c1nc(COC)c(C)c(COC)n1 [compound 44]
30 | 3.54^[b] | Cc1nc(C(N)=NOCC(C)CON=C(N)c2csc(C)n2)cs1 (centres unmarked) [compound 83]
31 | 4.84^[b] (isomer B) | C=C(CON=C(C)c1cccs1)CON=C(C)c1cccs1 (single isomer, unassigned) [compound 77]
32 | 4.72^b] | C=C(CON=C(C)c1cccc(C)n1)CON=C(C)c1ncc(Cl)cc1Cl [compound 194]
33 | 4.38^[b] | CC(=NOCCC(C)CCON=C(C)c1cccc(C)n1)c1cccc(C)n1 (centres unmarked) [Compound 75]
34 | 4.74^[b] | CC(=NOCC(C)(C)CON=C(C)c1cccc(C)n1)c1cccc(C)n1 (mixture of isomers) [Compound 250]
35 | 5.75^[b] | C=C(CON=C(C)c1ncc(Cl)cc1Cl)CON=C(C)c1ncc(Cl)cc1Cl [compound 153]
36 | 1.49^[b] | Cc1cc(C)nc(/C(N)=N/OCO/N=C(\N)c2nc(C)cc(C)n2)n1 [compound 5]
37 | 1.97^[b] | C=C(CON=C(C)c1cccc(C)n1)CON=C(N)c1nc(C)cc(C)n1 [compound 192]
38 | 6.30^[b] | C=C(CON=C(C)c1cc(Cl)cc(Cl)c1)CON=C(C)c1cccc(C)n1 [compound 24]
39 | 2.23^[b] | CC(=NOCON=C(C)c1ccccn1)c1ccccn1 [Compound 59]
40 | 4.99^[b] (isomer A) | C=C(CON=C(C)c1nc(C)c(C)s1)CON=C(C)c1nc(C)c(C)s1 (single isomer, unassigned) [compound 69]
41 | 4.43^[b] | C=C(CON=C(C)c1cccc(C)n1)CON=C(C)c1cccc(C(C)=O)n1 [Compound 117]
42 | 4.32^[b] | C=C(CON=C(N)c1cc(Cl)cc(Cl)c1)CON=C(C)c1cccc(C)n1 [compound 190]

Same assay, conditions: reversed-phase HPLC column (C 18); HCO2H; HPLC reversed-phase column (C 18), 43° C.; read-out: logP (HCO2H)

Row | chromatographic logP | Compound
43 | 2.61 | C/C(=N\OCC1(CO/N=C(\C)c2ccc(C)c(C)n2)CC1)c1cc(C)cc(C)n1 [(1E)-1-(4,6-dimethylpyridin-2-yl)ethanone O-({1-[({[(1E)-1-(5,6-dimethylpyridin-2-yl)ethylidene]amino}oxy)methyl]cyclopropyl}methyl)oxime]

Same assay, conditions: value marked [a]

Row | logP | Compound
44 | 3.84^[a] | C=C(CON=C(C#N)c1cccc(C)n1)CON=C(C#N)c1cccc(C)n1 [Compound 784]
45 | 5,69^[a] | CC(=NOCC(C)CON=C(C)c1cc(Cl)cc(C)n1)c1cc(C)cc(C)n1 (racemic) [compound 878]
46 | 1.63^[a] | CC(=NOC(=O)NCCCCNC(=O)ON=C(C)c1cc(C)cc(C)n1)c1cc(C)cc(C)n1 [compound 852]
47 | 3.09^[a] | CC(=NOCC(C)CON=C(C)c1cc(C)n(C)n1)c1cc(C)n(C)n1 (mixture of isomers) [compound 261]

Same assay, conditions: value marked [b]

Row | logP | Compound
48 | 4.72^[b] (isomer B) | C=C(CON=C(C)c1cccc(C)n1)CON=C(c1cccc(C)n1)C(C)C [Compound 359]
49 | 5.33^[b] | CCC(=NOCC(C)(C)CON=C(C)c1cccc(C)n1)c1cccc(C)n1 [Compound 372]
50 | 2.76^[b] | CC(=NOCC(C)CON=C(C)c1cc(C)cc(C)n1)c1cccc(C)n1 (centres unmarked) [Compound 499]
51 | 6.22^[b] | CC(=NOCC(C)(C)CON=C(C)c1cccc(C)n1)c1cccc(Cl)c1 [Compound 483]
52 | 1.84^[b] | C=C(CON=C(C)c1nc(C)ccc1C)CON=C(C)c1nc(C)ccc1C (single isomer, unassigned) [compound 308]
53 | 4.91^[b] | CC(=NOCC(C)CON=C(C)c1cccc(C)n1)c1ccccc1 (centres unmarked) [compound 439]
54 | 5.84^[b] | CC(=NOCC(C)CON=C(C)c1cccc(C)n1)c1ccc2ccccc2c1 (centres unmarked) [compound 497]
55 | 4.79^[b] | CCC(CC)(CON=C(C)c1cc(C)cc(C)n1)CON=C(C)c1cc(C)cc(C)n1 [Compound 811]
56 | 3.75^[b] | C=C(CON=C(C)c1ccc(OC)c(OC)c1)CON=C(C)c1cccc(C)n1 [compound 403]
57 | 2.75^[b] | CC(=NOCCC(C)ON=C(C)c1ccc(C)c(C)n1)c1ccc(C)c(C)n1 (centres unmarked) [Compound 519]
58 | 2.20^[b] | CC(=NOCC(C)(C)CON=C(C)c1cccnc1C)c1cccc(C)n1 [compound 488]
59 | 4.15^[b] | CC(=NOCC(C)CON=C(c1ccccc1)c1ncccc1C)c1cccc(C)n1 (centres unmarked) [compound 421]
60 | 3.85^[b] | COc1ccc(C(C)=NOCCCCON=C(C)c2cccc(C)n2)cc1OC [compound 380]
61 | 5.69^[b] | CC(=NOCC(C)CON=C(C)c1cc(Cl)cc(C)n1)c1cc(C)cc(C)n1 (racemic) [compound 878]
62 | 4.22^[b] | CC(=NOc1nc(Cl)nc(ON=C(C)c2cccc(C)n2)c1Cl)c1cccc(C)n1 (single isomer, unassigned) [compound 780]
63 | 4.56^[b] | CC(=NOCCCCCCON=C(c1cccc(C)n1)C1CC1)c1cccc(C)n1 [compound 347]
64 | 3.28^[b] | CC(=NOCCCCON=C(c1cccc(C)n1)C1CC1)c1cccc(C)n1 [compound 335]
65 | 2.62^[b] | CC(=NOCCCCCCON=C(C)c1cccc(C)n1)c1ccc(C)nc1 [compound 394]
66 | 4.44^[b] | C=C(CON=C(C)c1cccc(COC)n1)CON=C(C)c1cccc(COC)n1 [compound 291]
67 | 2.70^[b] (isomer A) | Cc1cc(C)nc(C(N)=NOC/C=C/CON=C(N)c2cc(C)cc(C)n2)c1 (single isomer, unassigned) [compound 771]
68 | 5.34^[b] | CC(=NOCC1(CON=C(C)c2ccc(C)c(C)n2)CCCCC1)c1ccc(C)c(C)n1 [Compound 320]
69 | 6.68^[b] | CCC(CC)(CON=C(C)c1cccc(C)n1)CON=C(C)c1cccc(C)n1 [Compound 809]
70 | 6.58^[b] | CC(=NOCCCCCCON=C(C)c1cccc(C)n1)c1cccc(Cl)c1 [compound 456]
71 | 2.27^[b] | CC(=NOCCCCCCON=C(C)c1cccnc1C)c1cccc(C)n1 [compound 461]
72 | 1.36^[b] | CC(=NOCC(O)CON=C(C)c1ccc(C)c(C)n1)c1ccc(C)c(C)n1 (centres unmarked) [compound 323]

Same assay, conditions: value marked [c]

Row | logP | Compound
73 | 2.94^[c] | C=C(CON=C(C)c1nc(C)ccc1C)CON=C(C)c1nc(C)ccc1C (single isomer, unassigned) [compound 308]
74 | 7.36^[c] | CCC(CC)(CON=C(C)c1cc(C)cc(C)n1)CON=C(C)c1cc(C)cc(C)n1 [Compound 811]
75 | 6.27^[c] | CC(=NOCCC(C)ON=C(C)c1ccc(C)c(C)n1)c1ccc(C)c(C)n1 (centres unmarked) [Compound 519]
76 | 7.32^[c] | CC(=NOCC(C)CON=C(C)c1cc(Cl)cc(C)n1)c1cc(C)cc(C)n1 (racemic) [compound 878]
77 | 4.88^[c] | CC(=NOc1nc(Cl)nc(ON=C(C)c2cccc(C)n2)c1Cl)c1cccc(C)n1 (single isomer, unassigned) [compound 780]
78 | 7.36^[c] | CC(=NOCC1(CON=C(C)c2ccc(C)c(C)n2)CCCCC1)c1ccc(C)c(C)n1 [Compound 320]
79 | 6.97^[c] | CCC(CC)(CON=C(C)c1cccc(C)n1)CON=C(C)c1cccc(C)n1 [Compound 809]
80 | 3.81^[c] | CC(=NOCC(O)CON=C(C)c1ccc(C)c(C)n1)c1ccc(C)c(C)n1 (centres unmarked) [compound 323]
